Measurements as given in patent US20150038438A1, “ANTIBACTERIAL COMPOUNDS AND METHODS FOR USE” (PTC THERAPEUTICS, INC., priority 2011, published 2015).
Converted amounts (≈) assume the structure as drawn. Structures can show the parent of a compound that is named as a salt.

How the values were obtained:
Assay in all cases: Antibacterial activity, microbroth dilution method (MIC)
[1] = test system: Gram-positive Staphylococcus aureus (S. aureus) 29213; assay type: cell-based; conditions: Staphylococcus aureus, Gram-positive S. aureus 29213
In short: (§1)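 Broth microdilution; endpoint = no macroscopic growth; value = lowest inhibiting concn, μg/mL.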

[2] = test system: super sensitive Gram-negative Escherichia coli (E. coli) BAS849; assay type: cell-based; conditions: Escherichia coli; super sensitive Gram-negative E. coli BAS849; microbroth dilution; read-out: MIC, E. coli BAS849
In short: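 Values are MICs (μg/mL): the smallest drug amount at which macroscopically visible bacterial growth is absent under assay conditions, from a microdilution method in broth.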

[3] = test system: control Gram-negative E. coli 25922 strain; assay type: cell-based, Escherichia coli; conditions: Escherichia coli
In short: as §1

| Structure (SMILES) | MIC [1] | MIC [2] | MIC [3] |
| --- | --- | --- | --- |
| Cl.O=C(O)c1c(O)c2c([nH]c1=O)-c1ccc(N3CCNCC3)cc1CCC2 [Cpd 119, 4-hydroxy-2-oxo-9-(piperazin-1-yl)-2,5,6,7-tetrahydro-1H-benzo[6,7]cyclohepta[1,2-b]pyridine-3-carboxylic acid hydrochloride] | 12.5 to 150 µg/mL | 3.5 to 12.5 µg/mL | 12.5 to 150 µg/mL |
| CN1CCN(c2ccc3c(c2)CCCc2c-3[nH]c(=O)c(C(=O)O)c2O)CC1.Cl [Cpd 120, 4-hydroxy-9-(4-methylpiperazin-1-yl)-2-oxo-2,5,6,7-tetrahydro-1H-benzo[6,7]cyclohepta[1,2-b]pyridine-3-carboxylic acid hydrochloride] | 12.5 to 150 µg/mL | 1 to 3.5 µg/mL | 12.5 to 150 µg/mL |
| Cl.O=C(O)c1c(O)c2c([nH]c1=O)-c1ccc(N3CCC4(CNC4)C3)cc1CCC2 [Cpd 121, 4-hydroxy-2-oxo-9-(2,6-diazaspiro[3.4]octan-6-yl)-2,5,6,7-tetrahydro-1H-benzo[6,7]cyclohepta[1,2-b]pyridine-3-carboxylic acid hydrochloride] | 12.5 to 150 µg/mL | 3.5 to 12.5 µg/mL | 12.5 to 150 µg/mL |
| Cl.O=C(O)c1c(O)c2c([nH]c1=O)-c1ccc(N3CCC4(CCNC4)C3)cc1CCC2 (stereo not drawn) [Cpd 122, 4-hydroxy-2-oxo-9-(2,7-diazaspiro[4.4]nonan-2-yl)-2,5,6,7-tetrahydro-1H-benzo[6,7]cyclohepta[1,2-b]pyridine-3-carboxylic acid hydrochloride] | 12.5 to 150 µg/mL | 12.5 to 150 µg/mL | 12.5 to 150 µg/mL |
| CN1CCC2(CCN(c3ccc4c(c3)CCCc3c-4[nH]c(=O)c(C(=O)O)c3O)C2)C1.Cl (stereo not drawn) [Cpd 123, 4-hydroxy-9-(7-methyl-2,7-diazaspiro[4.4]nonan-2-yl)-2-oxo-2,5,6,7-tetrahydro-1H-benzo[6,7]cyclohepta[1,2-b]pyridine-3-carboxylic acid hydrochloride] | 12.5 to 150 µg/mL | < 1 µg/mL | 3.5 to 12.5 µg/mL |
| N[C@@H]1[C@H]2CN(c3cc4c(c(F)c3F)-c3[nH]c(=O)c(C(=O)O)c(O)c3CCC4)C[C@@H]12 [Cpd 124, 9-((cis,cis)-6-amino-3-azabicyclo[3.1.0]hexan-3-yl)-10,11-difluoro-4-hydroxy-2-oxo-2,5,6,7-tetrahydro-1H-benzo[6,7]cyclohepta[1,2-b]pyridine-3-carboxylic acid hydrochloride] | 12.5 to 150 µg/mL | < 1 µg/mL | 3.5 to 12.5 µg/mL |
| N[C@@H]1[C@H]2CN(c3cc(F)c4c(c3)CCCc3c-4[nH]c(=O)c(C(=O)O)c3O)C[C@@H]12 [Cpd 125, 9-((cis,cis)-6-amino-3-azabicyclo[3.1.0]hexan-3-yl)-11-fluoro-4-hydroxy-2-oxo-2,5,6,7-tetrahydro-1H-benzo[6,7]cyclohepta[1,2-b]pyridine-3-carboxylic acid hydrochloride] | 12.5 to 150 µg/mL | < 1 µg/mL | 3.5 to 12.5 µg/mL |
| O=C(O)c1c(O)c2c([nH]c1=O)-c1ccc(N3CCCC3)cc1CCCC2 [Cpd 126, 4-hydroxy-2-oxo-10-(pyrrolidin-1-yl)-1,2,5,6,7,8-hexahydrobenzo[7,8]cycloocta[1,2-b]pyridine-3-carboxylic acid] | 1 to 3.5 µg/mL (≈ 2.82 to 9.88 µM) | < 1 µg/mL | 12.5 to 150 µg/mL (≈ 35.3 to 423 µM) |
| N[C@@H]1[C@H]2CN(c3ccc4c(c3)CCCCc3c-4[nH]c(=O)c(C(=O)O)c3O)C[C@@H]12 [Cpd 127, 10-((cis,cis)-6-amino-3-azabicyclo[3.1.0]hexan-3-yl)-4-hydroxy-2-oxo-1,2,5,6,7,8-hexahydrobenzo[7,8]cycloocta[1,2-b]pyridine-3-carboxylic acid hydrochloride] | 3.5 to 12.5 µg/mL | < 1 µg/mL | < 1 µg/mL |
| CCCNc1ccc2c(c1)CCCCc1c-2[nH]c(=O)c(C(=O)O)c1O [Cpd 128, 4-hydroxy-2-oxo-10-(propylamino)-1,2,5,6,7,8-hexahydrobenzo[7,8]cycloocta[1,2-b]pyridine-3-carboxylic acid] | 3.5 to 12.5 µg/mL (≈ 10.2 to 36.5 µM) | 1 to 3.5 µg/mL (≈ 2.92 to 10.2 µM) | 12.5 to 150 µg/mL (≈ 36.5 to 438 µM) |
| CCNc1ccc2c(c1)CCCCc1c-2[nH]c(=O)c(C(=O)O)c1O [Cpd 129, 10-(ethylamino)-4-hydroxy-2-oxo-1,2,5,6,7,8-hexahydrobenzo[7,8]cycloocta[1,2-b]pyridine-3-carboxylic acid] | 3.5 to 12.5 µg/mL (≈ 10.7 to 38.1 µM) | 1 to 3.5 µg/mL (≈ 3.05 to 10.7 µM) | 12.5 to 150 µg/mL (≈ 38.1 to 457 µM) |
| Cn1c2c(cc(C(=O)O)c1=O)CC=Cc1cc3c(ccn3C)cc1-2 [Cpd 130, 1,9-dimethyl-2-oxo-1,2,5,9-tetrahydropyrido[3′,2′:6,7]cyclohepta[1,2-f]indole-3-carboxylic acid] | 12.5 to 150 µg/mL (≈ 39 to 468 µM) | < 1 µg/mL | 3.5 to 12.5 µg/mL (≈ 10.9 to 39 µM) |
| Cn1c2c(c(O)c(C(=O)O)c1=O)CC=Cc1cc3c(ccn3C)cc1-2 [Cpd 131, 4-hydroxy-1,9-dimethyl-2-oxo-1,2,5,9-tetrahydropyrido[3′,2′:6,7]cyclohepta[1,2-f]indole-3-carboxylic acid] | 3.5 to 12.5 µg/mL (≈ 10.4 to 37.2 µM) | < 1 µg/mL | 12.5 to 150 µg/mL (≈ 37.2 to 446 µM) |
| CCn1c2c(c(O)c(C(=O)O)c1=O)CC=Cc1cc3c(ccn3C)cc1-2 [Cpd 132, 1-ethyl-4-hydroxy-9-methyl-2-oxo-1,2,5,9-tetrahydropyrido[3′,2′:6,7]cyclohepta[1,2-f]indole-3-carboxylic acid] | 3.5 to 12.5 µg/mL (≈ 9.99 to 35.7 µM) | 3.5 to 12.5 µg/mL (≈ 9.99 to 35.7 µM) | 12.5 to 150 µg/mL (≈ 35.7 to 428 µM) |
| Cn1c2c(cc(C(=O)O)c1=O)CCCc1cc3c(ccn3C)cc1-2 [Cpd 133, 1,9-dimethyl-2-oxo-1,2,5,6,7,9-hexahydropyrido[3′,2′:6,7]cyclohepta[1,2-f]indole-3-carboxylic acid] | 12.5 to 150 µg/mL (≈ 38.8 to 465 µM) | < 1 µg/mL | 3.5 to 12.5 µg/mL (≈ 10.9 to 38.8 µM) |
| Cn1c2c(c(O)c(C(=O)O)c1=O)CCCc1cc3c(ccn3C)cc1-2 [Cpd 134, 4-hydroxy-1,9-dimethyl-2-oxo-1,2,5,6,7,9-hexahydropyrido[3′,2′:6,7]cyclohepta[1,2-f]indole-3-carboxylic acid] | 3.5 to 12.5 µg/mL (≈ 10.3 to 36.9 µM) | < 1 µg/mL | 12.5 to 150 µg/mL (≈ 36.9 to 443 µM) |
| CN1CCc2cc3c(cc21)CCCc1c(O)c(C(=O)O)c(=O)n(C)c1-3 [Cpd 135, 4-hydroxy-1,9-dimethyl-2-oxo-1,2,5,6,7,9,10,11-octahydropyrido[3′,2′:6,7]cyclohepta[1,2-f]indole-3-carboxylic acid] | 3.5 to 12.5 µg/mL (≈ 10.3 to 36.7 µM) | < 1 µg/mL | 12.5 to 150 µg/mL (≈ 36.7 to 441 µM) |
| CCCCNCc1cc2cc3c(cc2n1C)CCCc1c-3[nH]c(=O)c(C(=O)O)c1O.Cl [Cpd 136, 10-((butylamino)methyl)-4-hydroxy-9-methyl-2-oxo-1,2,5,6,7,9-hexahydropyrido[3′,2′:6,7]cyclohepta[1,2-f]indole-3-carboxylic acid hydrochloride] | 3.5 to 12.5 µg/mL | < 1 µg/mL | < 1 µg/mL |
| CCCCCNCc1cc2cc3c(cc2n1C)CCCc1c-3[nH]c(=O)c(C(=O)O)c1O.Cl [Cpd 137, 4-hydroxy-9-methyl-2-oxo-10-((pentylamino)methyl)-1,2,5,6,7,9-hexahydropyrido[3′,2′:6,7]cyclohepta[1,2-f]indole-3-carboxylic acid hydrochloride] | 3.5 to 12.5 µg/mL | < 1 µg/mL | < 1 µg/mL |
| CCCCCCNCc1cc2cc3c(cc2n1C)CCCc1c-3[nH]c(=O)c(C(=O)O)c1O.Cl [Cpd 138, 10-((hexylamino)methyl)-4-hydroxy-9-methyl-2-oxo-1,2,5,6,7,9-hexahydropyrido[3′,2′:6,7]cyclohepta[1,2-f]indole-3-carboxylic acid hydrochloride] | 1 to 3.5 µg/mL | < 1 µg/mL | 1 to 3.5 µg/mL |
| CCCCCCCNCc1cc2cc3c(cc2n1C)CCCc1c-3[nH]c(=O)c(C(=O)O)c1O.Cl [Cpd 139, 10-((heptylamino)methyl)-4-hydroxy-9-methyl-2-oxo-1,2,5,6,7,9-hexahydropyrido[3′,2′:6,7]cyclohepta[1,2-f]indole-3-carboxylic acid hydrochloride] | 1 to 3.5 µg/mL | < 1 µg/mL | 12.5 to 150 µg/mL |
| CCCCCCCCNCc1cc2cc3c(cc2n1C)CCCc1c-3[nH]c(=O)c(C(=O)O)c1O.Cl [Cpd 140, 4-hydroxy-9-methyl-10-((octylamino)methyl)-2-oxo-1,2,5,6,7,9-hexahydropyrido[3′,2′:6,7]cyclohepta[1,2-f]indole-3-carboxylic acid hydrochloride] | 1 to 3.5 µg/mL | < 1 µg/mL | 12.5 to 150 µg/mL |
| CCCCCCCCCNCc1cc2cc3c(cc2n1C)CCCc1c-3[nH]c(=O)c(C(=O)O)c1O.Cl [Cpd 141, 4-hydroxy-9-methyl-10-((nonylamino)methyl)-2-oxo-1,2,5,6,7,9-hexahydropyrido[3′,2′:6,7]cyclohepta[1,2-f]indole-3-carboxylic acid hydrochloride] | 3.5 to 12.5 µg/mL | 1 to 3.5 µg/mL | 12.5 to 150 µg/mL |
| CN(C)CCNCc1cc2cc3c(cc2n1C)CCCc1c-3[nH]c(=O)c(C(=O)O)c1O.Cl.Cl [Cpd 142, 10-(((2-(dimethylamino)ethyl)amino)methyl)-4-hydroxy-9-methyl-2-oxo-1,2,5,6,7,9-hexahydropyrido[3′,2′:6,7]cyclohepta[1,2-f]indole-3-carboxylic acid dihydrochloride] | 12.5 to 150 µg/mL | < 1 µg/mL | 3.5 to 12.5 µg/mL |
| CNCCNCc1cc2cc3c(cc2n1C)CCCc1c-3[nH]c(=O)c(C(=O)O)c1O.Cl.Cl [Cpd 143, 4-hydroxy-9-methyl-10-(((2-(methylamino)ethyl)amino)methyl)-2-oxo-1,2,5,6,7,9-hexahydropyrido[3′,2′:6,7]cyclohepta[1,2-f]indole-3-carboxylic acid dihydrochloride] | 12.5 to 150 µg/mL | 3.5 to 12.5 µg/mL | 12.5 to 150 µg/mL |
| Cl.Cl.Cn1c(CNCCN)cc2cc3c(cc21)CCCc1c-3[nH]c(=O)c(C(=O)O)c1O [Cpd 144, 10-(((2-aminoethyl)amino)methyl)-4-hydroxy-9-methyl-2-oxo-1,2,5,6,7,9-hexahydropyrido[3′,2′:6,7]cyclohepta[1,2-f]indole-3-carboxylic acid dihydrochloride] | 12.5 to 150 µg/mL | 3.5 to 12.5 µg/mL | 12.5 to 150 µg/mL |
